Measured values: US4210667A, “Pharmaceutical preparations containing coumarin carboxylic acid derivatives” (Pfizer Inc., priority 1979, dated 1980)

Key:
[1] = test system: sorbitol accumulation in the sciatic nerve of streptozotocinized (i.e., diabetic) rats; test: Inhibition of sorbitol accumulation in the sciatic nerve of streptozotocinized (diabetic) rats; assay type: in vivo, rat; settings: 25 mg./kg. t.i.d. oral, at 4, 8 and 24 hours after streptozotocin; measured at 27 hours; vs untreated control; Examples 1, 5: average of two tests
Description: (§1) The ability of the active ingredients of the preparations, the derivatives,to control chronic diabetic complications and enzymatic reduction of aldoses may be determined by a number of standard biological or pharmacological tests. These include (1) measuring the ability to inhibit the enzyme activity or isolated aldose reductase; (2) measuring the ability to reduce or inhibit sorbitol accumulation in the sciatic nerve of acutely streptozotocinized (i.e., diabetic) rats; (3) measuring the ability to reverse already-elevated sorbitol levels in the sciatic nerve and lens of chronic streptozocin-induced diabetic rats; (4) measuring the ability to prevent or inhibit galactitol formation in the lens of acutely galactosemic rats; and (5) measuring the ability to delay cataract formation and reduce the severity of lens opacities in chronic galactosemic rats.
Some of the Examples of derivatives prepared above were also tested for their ability to reduce or inhibit sorbitol accumulation in the sciatic nerve of streptozotocinized (i.e., diabetic) rats essentially by the procedure described in U.S. Pat. No. 3,821,383. In the present study, the amount of sorbitol accumulation in the sciatic nerves was measured 27 hours after induction of diabetes. The compounds were administered orally at the dose level indicated at 4, 8 and 24 hours following the administration of streptozotocin. The results obtained in this manner are presented in terms of percent inhibition (%) afforded by the test compound compared to the control where no compound was administered (i.e., the untreated animal where sorbitol levels normally rise from approximately […] tissue to as high as […] tissue in the 27-hour test period).

[2] = target: T1, aldose reductase (Bos taurus, UniProt P16116); test: Aldose reductase inhibitory activity (partially purified enzyme from calf lens); assay type: biochemical; settings: 10^-4 M, relative to untreated controls, Examples 2, 4, 5: average of two tests, read-out: Degree of Inhibition at 10^-4 Molar
T1 construct: partially purified aldose reductase enzyme obtained from calf lens; from tissue; host or cells: calf lens
Description: as §1
The derivatives prepared in Examples 1-7 were tested for their ability to reduce or inhibit aldose reductase enzyme activity, following the procedure described in U.S. Pat. No. 3,821,383 and based on the procedure of Hayman et. al., Journal of Biological Chemistry, 240, 877 (1965). The substrate employed was partially purified aldose reductase enzyme obtained from calf lens. The drugs were tested at a level of 10^-4 M to determine the degree of inhibition of enzyme activity relative to untreated controls.

| Structure (SMILES) | % Inhibition at Dose (sorbitol accumulation in sciatic nerve) [1] | inhibition at 100 µM [2] |
| --- | --- | --- |
| Cc1cc2oc(=O)c(C)c(CC(=O)O)c2cc1C [Example 1, 3,6,7-trimethylcoumarin-4-acetic acid] | 21% | 81% |
| O=C(O)Cc1cc(=O)oc2c1cc(Cl)c1ccccc12 [Example 2, 6-chloro-1:2-alpha-naphthapyrone-4-acetic acid] | 9% | 91% |
| Cc1cc(C)c2c(CC(=O)O)cc(=O)oc2c1 [Example 3, 5,7-dimethylcoumarin-4-acetic acid] | 11% | 91% |
| Cc1ccc2c(CC(=O)O)cc(=O)oc2c1 [Example 4, 7-methylcoumarin-4-acetic acid] | – | 94% |
| Cc1cc2oc(=O)cc(CC(=O)O)c2cc1C [Example 5, 6,7-dimethylcoumarin-4-acetic acid] | 4% | 94% |
| Cc1cc(Cl)cc2c(C(=O)O)cc(=O)oc12 [Example 6, 6-chloro-8-methylcoumarin-4-carboxylic acid] | – | 65% |
